Test results as given in patent US9115149B2, “Heterocyclic compounds as inhibitors of fatty acid biosysnthesis for bacterial infections” (Vitas Pharma Research Private Limited, priority 2011, dated 2015).
Converted amounts (≈) assume the structure as drawn. Like-named read-outs stand apart in the source and are kept apart here.

Tests used:
Format in all cases: cell-based
[1] = test system: Bacillus subtilis (ΔFabI, ΔFabL; Pxylose SaFabI); test: Target specificity: MIC in B. subtilis expressing S. aureus FabI under xylose inducible promoter
Experimental: To test for target specificity, the MIC was determined in a Bacillus subtilis strain in which the two FabI homologues (FabI and FabL) were deleted and replaced with S. aureus FabI (Sa FabI) under a Xylose inducible promoter. By varying the amount of xylose in the growth medium, the expression of FabI was proportionately modified. Compounds specifically targeting Sa FabI show an increased MIC when higher amounts of FabI are present in the cell (high Xylose concentrations). In contrast, when FabI levels are low, the cell becomes hypersusceptible, reducing the MIC (low Xylose concentrations). […] Shown below are data for target specificity.

[2] = test system: Staphylococcus aureus (ATCC29213); test: MIC by microbroth dilution, methicillin sensitive S. aureus; conditions: read-out: Minimum inhibitory concentration (MIC) Staphylococcus aureus (ATCC29213)
Experimental: (§1) Shown below are the biological activities of representative compounds of the invention. The compounds were tested by the microbroth dilution method (National committee for Clinical Laboratory Standards, M07-A8, Volume 29, 2009) to determine the Minimum Inhibitory Concentration (MIC) against Methicillin sensitive and resistant Staphylococcus aureus. The MICs in the presence of 10% BSA was also tested. Further, select compounds were tested for metabolic stability using mouse liver microsomes based on published protocols (Journal of Biological Sciences, 2008, 8, 1110-1114).

[3] = test system: Methicillin resistant Staphylococcus aureus (ATCC 33591); test: MIC by microbroth dilution, methicillin resistant S. aureus; conditions: ATCC33591, read-out: Minimum inhibitory concentration (MIC) Methicillin resistant Staphylococcus aureus (ATCC 33591)
Experimental: as §1

[4] = read-out: MIC in the presence of 0.005% Xylose (low Xylose concentration)
[5] = read-out: MIC in the presence of 0.5% Xylose (high Xylose concentration)

Row | SMILES | MIC [2] [µg/mL] | MIC [3] [µg/mL] | MIC [1, 4] [µg/mL] | MIC [1, 5] [µg/mL]
1 | CN(Cc1cc2ccccc2n1C)C(=O)/C=C/c1cnc2[nH]c(=O)[nH]c2c1 [VT-02-00002, (E)-N-methyl-N-((1-methyl-1H-indol-2-yl)methyl)-3-(2-oxo-2,3-dihydro-1H-imidazo[4,5-b]pyridin-6-yl)acrylamide] | 1 (≈ 2.77 µM) | 2 (≈ 5.53 µM) | 0.06 | 1
2 | CN(Cc1cc2ccccc2n1C)C(=O)/C=C/c1cnc2[nH]nc(N)c2c1 [VT-02-00029a, (E)-3-(3-amino-1H-pyrazolo[3,4-b]pyridin-5-yl)-N-methyl-N-((1-methyl-1H-indol-2-yl)methyl)acrylamide] | 1 (≈ 2.77 µM) | 2 (≈ 5.55 µM) | 0.03 | 0.5
3 | CN(Cc1cc2ccccc2n1C)C(=O)/C=C/c1cnc2[nH]ncc2c1 [VT-02-00032, (E)-N-Methyl-N-(1-methyl-1H-indol-2-ylmethyl)-3-(1H-pyrazolo[3,4-b]pyridin-5-yl)-acrylamide] | 4 (≈ 11.6 µM) | 4 (≈ 11.6 µM) | 0.125 | 4
4 | CN(Cc1cc2ccccc2n1C)C(=O)/C=C/c1cnc2[nH]c3ccccc3c2c1 [VT-02-00034, (E)-N-methyl-N-((1-methyl-1H-indol-2-yl)methyl)-3-(9H-pyrido[2,3-b]indol-3-yl)acrylamide] | > 64 | > 64 | – | –
5 | CCNc1n[nH]c2ncc(/C=C/C(=O)N(C)Cc3cc4ccccc4n3C)cc12 [VT-02-00038, (E)-3-(3-(ethylamino)-1H-pyrazolo[3,4-b]pyridin-5-yl)-N-methyl-N-((1-methyl-1H-indol-2-yl)methyl)acrylamide] | > 32 | > 32 | – | –

Now from value to compound, other results behind:

Row | MIC [2] [µg/mL] | MIC [3] [µg/mL] | SMILES | MIC [1, 4] [µg/mL] | MIC [1, 5] [µg/mL]
6 | > 32 | > 32 | CN(Cc1cc2ccccc2n1C)C(=O)/C=C/c1ccc2[nH]c3ncccc3c2c1 [VT-02-00034a, (E)-N-methyl-N-((1-methyl-1H-indol-2-yl)methyl)-3-(9H-pyrido[2,3-b]indol-6-yl)acrylamide] | – | –
7 | > 32 | > 32 | CN1CCC(Nc2n[nH]c3ncc(/C=C/C(=O)N(C)Cc4cc5ccccc5n4C)cc23)CC1 [VT-02-00037, (E)-N-methyl-N-((1-methyl-1H-indol-2-yl)methyl)-3-(3-(1-methylpiperidin-4-ylamino)-1H-pyrazolo[3,4-b]pyridin-5-yl)acrylamide] | – | –
8 | 2 (≈ 5.55 µM) | 2 (≈ 5.55 µM) | CN(Cc1cc2ccccc2n1C)C(=O)/C=C/c1cnc2c(c1)CC(=O)N2 [VT-02-00050, (E)-N-methyl-N-((1-methyl-1H-indol-2-yl)methyl)-3-(2-oxo-2,3-dihydro-1H-pyrrolo[2,3-b]pyridin-5-yl)acrylamide] | – | –
9 | > 16 | > 16 | CCn1c(=O)[nH]c2ncc(/C=C/C(=O)N(C)Cc3nc4ccccc4s3)cc21 [VT-02-00054, (E)-N-(benzo[d]thiazol-2-ylmethyl)-3-(1-ethyl-2-oxo-2,3-dihydro-1H-imidazo[4,5-b]pyridin-6-yl)-N-methylacrylamide] | – | –
10 | > 16 | > 16 | CN(Cc1cc2ccccc2n1C)C(=O)/C=C/c1cnc2[nH]c(=O)oc2c1 [VT-02-00058, (E)-N-methyl-N-((1-methyl-1H-indol-2-yl)methyl)-3-(2-oxo-2,3-dihydrooxazolo[4,5-b]pyridin-6-yl)acrylamide] | – | –
11 | > 16 | > 16 | CN(Cc1cc2ccccc2n1C)C(=O)/C=C/c1cnc2[nH]cnc2c1 [VT-02-00060, (E)-3-(3H-imidazo[4,5-b]pyridin-6-yl)-N-methyl-N-((1-methyl-1H-indol-2-yl)methyl)acrylamide] | – | –
12 | > 8 | > 8 | Cn1c2c(c3ccccc31)CN(C(=O)/C=C/c1cnc3c(c1)C1(CCC1)C(=O)N3)CC2 [VT-02-00082, (E)-5′-(3-(5-methyl-3,4-dihydro-1H-pyrido[4,3-b]indol-2(5H)-yl)-3-oxoprop-1-enyl)spiro[cyclobutane-1,3′-pyrrolo[2,3-b]pyridin]-2′(1′H)-one] | – | –
